Laboratory results from patent US5326907A, “2-aminoethanesulfonic acid derivatives of 3,5-disubstituted-4-hydroxyphenolic thioethers” (G. D. Searle & Co., priority 1992, dated 1994).
Where a name gives a salt, the structure may show the parent alone.

Key:
5-lipoxygenase = target: T1, 5-lipoxygenase (Rattus norvegicus, UniProt P12527); assay: Inhibition of 5-lipoxygenase, in vitro; format: biochemical; conditions: 100,000×g supernatant of RBL-1 homogenate, [1-14C]-arachidonic acid and Ca++; average; read-out: average IC50, inhibition of 5-lipoxygenase (5-HETE synthesis)
T1 construct: supernatant fraction of Rat Basophilic Leukemia Cell Homogenate (RBL-1) serves as a 5-lipoxygenase enzyme source; endogenous in cells; host or cells: RBL-1 (rat basophilic leukemia) cells, 100,000×g supernatant of homogenate
T1 sequence (P12527 1-673): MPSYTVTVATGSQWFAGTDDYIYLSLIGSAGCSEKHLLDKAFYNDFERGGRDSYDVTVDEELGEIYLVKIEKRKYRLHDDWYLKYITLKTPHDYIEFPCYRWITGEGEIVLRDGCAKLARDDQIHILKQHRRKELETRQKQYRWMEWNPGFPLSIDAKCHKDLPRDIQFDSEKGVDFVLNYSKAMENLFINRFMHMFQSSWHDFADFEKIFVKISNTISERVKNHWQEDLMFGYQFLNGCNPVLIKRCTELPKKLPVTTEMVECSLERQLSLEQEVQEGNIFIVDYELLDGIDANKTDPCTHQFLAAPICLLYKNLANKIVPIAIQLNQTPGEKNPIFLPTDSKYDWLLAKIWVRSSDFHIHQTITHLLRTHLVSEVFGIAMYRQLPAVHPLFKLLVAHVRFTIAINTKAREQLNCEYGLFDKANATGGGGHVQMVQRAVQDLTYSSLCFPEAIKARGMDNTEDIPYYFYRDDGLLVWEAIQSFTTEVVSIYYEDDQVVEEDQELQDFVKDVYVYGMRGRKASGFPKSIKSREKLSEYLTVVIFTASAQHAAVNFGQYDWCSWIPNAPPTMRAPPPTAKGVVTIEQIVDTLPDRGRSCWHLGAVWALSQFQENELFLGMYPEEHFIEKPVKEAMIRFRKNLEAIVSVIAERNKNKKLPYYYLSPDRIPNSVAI
Description: The compounds of the invention are evaluated with respect to 5-lipoxygenaseinhibition according to the following assay procedure.
The 100,000×g supernatant fraction of Rat Basophilic Leukemia Cell Homogenate (RBL-1) serves as a 5-lipoxygenase enzyme source. The enzyme is incubated with [1-^14 C)-arachidonic acid and Ca++ in the presence and absence of test compound. The product of 5-lipoxygenase, 5-hydroxyeicosa-tetraenoic acid (5-HETE), is separated by thin-layer chromatography and measured by radioactivity. A compound inhibiting 5-HETE synthesis by 30% or more is considered active at that concentration.

[1] = system: superoxide generation by FMLP-stimulated human neutrophils; assay: Human neutrophil superoxide generation (FMLP-stimulated, cytochrome C reduction); format: cell-based; conditions: pH 7.2, 37° C., preincubated 3 minutes, average, read-out: average IC50, inhibition of superoxide generation
Description: The compounds of the invention are evaluated with respect to superoxide modulating activity according to the following assay procedure:
Superoxide generation by formyl-methionyl-leucyl-phenylalanine (FMLP)-stimulated neutrophils was quantitated by the reduction of cytochrome C (Badwey, J. A., Curnutte, J. T. and Karnovsky, M. L., cis-Polyunsaturated fatty acids induce high levels of superoxide production by human neutrophils. J. Biol. Chem. 256:12640-12643, 1981.) To 5 million neutrophils in 2.85 ml of Krebs-Ringer phosphate buffer, pH 7.2, 50 ul of inhibitor (in 10% DMSO/buffer), and 50 ul ferricytochrome C (5 mM, stock) were added and preincubated for 3 minutes at 37° C. Absorption measurements at 550 nm were recorded at start of preincubation. Fifty ul FMLP (6 uM, stock) was added to initiate reaction. A plateau was reached within 3 minutes and this reading minus the initial reading (before addition of FMLP) was used to calculate nanomoles of superoxide generated based on a molar extinction coefficient of 2.1×10^4 cm^-1 mole^-1.
Human neutrophils were isolated from freshly drawn blood of healthy donors. Two ml of 5% dextran (MW 200,000-300,000) in saline was added to 10 ml aliquots of blood, mixed and placed upright for 45 min. at 37° C. Approx. […] The red cell lysing procedure was repeated, the cells suspended in appropriate buffer (depending on assay) and counted.

[2] = compared with histamine; background information; cited from earlier work

| IC50 (5-lipoxygenase) | IC50 [1] | SMILES | potency in causing long lasting bronchoconstricting effects relative to histamine [2] |
| --- | --- | --- | --- |
| 3.25 µM | 87.5 µM | C[C@H](Sc1cc(C(C)(C)C)c(O)c(C(C)(C)C)c1)[C@@H](C)OCC(=O)NCCS(=O)(=O)O (relative stereo) [Example 5, 2-[[[2S*-[[3,5-bis(1,1-dimethylethyl)-4-hydroxyphenyl]thio]-1R*-methylpropoxy]acetyl]amino]ethanesulfonic acid, potassium salt] | – |
| – | – | CCCCC/C=C\C\C=C/C=C/C=C/[C@@H](SC[C@H](NC(=O)CC[C@H](N)C(=O)O)C(=O)NCC(=O)O)[C@@H](O)CCCC(=O)O [LTC4] | at least 100 times |
